Our source for the inhibition, IC50 and Ki values is ChEMBL document CHEMBL4118055, “Chemoenzymatic Synthesis and α-Glucosidase Inhibitory Activity of Dimeric Neolignans Inspired by Magnolol” (J Nat Prod, 2017).

A word on the inhibition: it is the share of the control response that was lost under treatment. One may read the IC50 as the concentration that gives 50% inhibition. Lower therefore signals greater potency in that assay. One may read the Ki as a dissociation constant, usually derived from enzyme kinetics or from competition with a known ligand.

SMILES strings stand for the structures. Bounds are passed on as bounds.

The subject of one assay is Saccharomyces cerevisiae. Description: Inhibition of yeast alpha-glucosidase at 1.5 uM using p-nitrophenyl-alpha-glucopyranoside as substrate measured after 30 mins relative to control.
A short description of assay [1]: Inhibition of yeast alpha-glucosidase using p-nitrophenyl-alpha-glucopyranoside as substrate measured after 30 mins. Also on record: species or system Saccharomyces cerevisiae.
Assay [2] can be described thus: Competitive-inhibition of yeast alpha-glucosidase using varying levels of p-nitrophenyl-alpha-glucopyranoside as substrate incubated for 20 mins measured at 1 min interval by Lineweaver-burk plot analysis. Also on record: species or system Saccharomyces cerevisiae.

`O=c1c(O)c(-c2ccc(O)c(O)c2)oc2cc(O)cc(O)c12` [QUERCETIN]: the inhibition with Saccharomyces cerevisiae is 5.3%. In assay [1], this compound displayed an IC50 of 14.2 µM.

In the assay with Saccharomyces cerevisiae, `C=CCc1ccc(O)c(-c2cc(CC=C)ccc2O)c1` [MAGNOLOL] gave an inhibition of 29.8%. The same compound gave an IC50 in assay [1] of 2 µM.

On to `COc1cc(CCO)cc(-c2cc(CCO)cc(OC)c2O)c1O`, for which, in assay [1], the IC50 was over 100 µM.

In the assay on Saccharomyces cerevisiae, `OCCc1ccc(O)c(-c2cc(CCO)ccc2O)c1` yielded an inhibition of 76.9%. Also, in assay [1], the IC50 came to 0.86 µM.

In assay [1], `COc1cc(CCO)cc(-c2cc(CCO)cc(O)c2O)c1O` had an IC50 of over 100 µM.

Compound `C=CCc1ccc(O)c(-c2ccc(O)c(CC=C)c2)c1` [HONOKIOL] displayed an inhibition in the assay with Saccharomyces cerevisiae of 3.9%. For the same compound, half-maximal inhibition in assay [1] (IC50) was put at 23 µM.

As to `OCCc1cc(O)c(O)c(-c2cc(CCO)cc(O)c2O)c1`, the inhibition in the assay with Saccharomyces cerevisiae was determined as 18.2%. Moreover, the IC50 in assay [1] was 4.1 µM.

The compound `C=CCc1ccc(O)c(-c2cc(CC=C)cc(O)c2O)c1` gave an inhibition with Saccharomyces cerevisiae of 97.6%. In assay [1], this compound showed an IC50 of 0.49 µM.

Compound `C[C@H]1O[C@H](O[C@H]2[C@H](O)[C@@H](O)[C@@H](O[C@H]3[C@H](O)[C@@H](O)C(O)O[C@@H]3CO)O[C@@H]2CO)[C@H](O)[C@@H](O)[C@@H]1N[C@H]1C=C(CO)[C@@H](O)[C@H](O)[C@H]1O` (stereo partly specified) [ACARBOSE] came in with an inhibition in the assay on Saccharomyces cerevisiae of 0.7%. The compound also registered an IC50 in assay [1] of 270 µM.

As for `C=CCc1cc(OC)c(O)c(-c2cc(CC=C)cc(OC)c2O)c1`, in the assay on Saccharomyces cerevisiae, the inhibition is 46.7%. For the same compound, in assay [1], half-maximal inhibition (IC50) was put at 2 µM.

In turn, `CC(=O)OCCc1cc(O)c(O)c(-c2cc(CCOC(C)=O)cc(O)c2O)c1` registered an inhibition with Saccharomyces cerevisiae of 31.4%. Also, the IC50 in assay [1] came out at 2.9 µM.

`COc1cc(CCOC(C)=O)cc(-c2cc(CCOC(C)=O)cc(OC)c2O)c1O`: the inhibition in the assay with Saccharomyces cerevisiae was found to be 64.5%. Moreover, in assay [1], the IC50 worked out at 1.1 µM.

In the assay on Saccharomyces cerevisiae, `COc1cc(CCOC(C)=O)cc(-c2cc(CCOC(C)=O)cc(O)c2O)c1O` gave an inhibition of 21.3%. The same compound returned an IC50 in assay [1] of 3.3 µM.

The compound `C=CCc1cc(O)c(O)c(-c2cc(CC=C)cc(O)c2O)c1` had an inhibition in the assay on Saccharomyces cerevisiae of 36.7%. The compound further gave an IC50 in assay [1] of 2.1 µM.

The compound `CC(=O)OCCc1ccc(O)c(-c2cc(CCOC(C)=O)ccc2O)c1` returned an inhibition in the assay on Saccharomyces cerevisiae of 98.9%. For the same compound, the Ki in assay [2] is 0.86 µM. In assay [1], half-maximal inhibition (IC50) was put at 0.15 µM.

Take `C=CCc1cc(O)c(O)c(-c2cc(CC=C)cc(OC)c2O)c1`: the inhibition with Saccharomyces cerevisiae worked out at 98%. In assay [1], this compound yielded an IC50 of 0.5 µM.
